Numbers after ± are expanded uncertainties.
Settings: Liquid, Hot wire method

COCCOC [1,2-dimethoxyethane]
Settings	thermal conductivity [W/m/K]
245.46 K, 104.6 kPa	0.1648 ± 0.0034
245.69 K, 30045 kPa	0.1742 ± 0.0035
245.95 K, 9806.6 kPa	0.1669 ± 0.0034
245.96 K, 30103 kPa	0.1746 ± 0.0036
246.06 K, 5008.2 kPa	0.1665 ± 0.0034
246.06 K, 20070 kPa	0.1711 ± 0.0035
246.24 K, 20007 kPa	0.1706 ± 0.0035
246.49 K, 105.9 kPa	0.165 ± 0.0034
246.52 K, 5028.5 kPa	0.1666 ± 0.0034
246.69 K, 10018 kPa	0.1683 ± 0.0034
246.75 K, 10005 kPa	0.1682 ± 0.0034
246.79 K, 5010 kPa	0.1662 ± 0.0034
247.52 K, 103.3 kPa	0.1647 ± 0.0034
255.91 K, 20016 kPa	0.1675 ± 0.0034
256.02 K, 102.5 kPa	0.1606 ± 0.0033
256.02 K, 30007 kPa	0.1706 ± 0.0035
256.1 K, 10040 kPa	0.1643 ± 0.0033
256.21 K, 5070.2 kPa	0.1623 ± 0.0033
256.75 K, 30014 kPa	0.1707 ± 0.0035
256.81 K, 20002 kPa	0.1679 ± 0.0034
256.83 K, 10040 kPa	0.1642 ± 0.0033
256.9 K, 5065.5 kPa	0.1625 ± 0.0033
256.95 K, 102.5 kPa	0.161 ± 0.0033
257.48 K, 5064.5 kPa	0.1625 ± 0.0033
257.56 K, 20022 kPa	0.1674 ± 0.0034
257.58 K, 102.3 kPa	0.1607 ± 0.0033
257.62 K, 10048 kPa	0.1643 ± 0.0033
257.66 K, 30002 kPa	0.1708 ± 0.0035
266.15 K, 10003 kPa	0.1617 ± 0.0033
266.18 K, 5017.9 kPa	0.1601 ± 0.0033
266.19 K, 30009 kPa	0.1688 ± 0.0034
266.26 K, 101.3 kPa	0.158 ± 0.0032
266.26 K, 20003 kPa	0.1654 ± 0.0034
266.32 K, 10011 kPa	0.1618 ± 0.0033
266.41 K, 100.9 kPa	0.158 ± 0.0032
266.58 K, 5037.6 kPa	0.1598 ± 0.0033
266.87 K, 20013 kPa	0.165 ± 0.0034
266.95 K, 30000 kPa	0.1684 ± 0.0034
267.11 K, 30013 kPa	0.1683 ± 0.0034
267.35 K, 20003 kPa	0.1653 ± 0.0034
267.37 K, 10021 kPa	0.1617 ± 0.0033
267.5 K, 101.1 kPa	0.1578 ± 0.0032
267.84 K, 5027 kPa	0.1598 ± 0.0033
275.68 K, 10024 kPa	0.1585 ± 0.0032
275.72 K, 5003.3 kPa	0.1567 ± 0.0032
276.21 K, 20024 kPa	0.1624 ± 0.0033
276.34 K, 101.8 kPa	0.1547 ± 0.0032
276.45 K, 30012 kPa	0.1657 ± 0.0034
276.49 K, 100.9 kPa	0.1543 ± 0.0032
276.52 K, 20015 kPa	0.1623 ± 0.0033
276.94 K, 5006 kPa	0.1567 ± 0.0032
277.11 K, 30008 kPa	0.1654 ± 0.0034
277.29 K, 10005 kPa	0.1584 ± 0.0032
277.31 K, 30012 kPa	0.1653 ± 0.0034
277.53 K, 20015 kPa	0.1623 ± 0.0033
277.55 K, 5005.5 kPa	0.1565 ± 0.0032
277.95 K, 10000 kPa	0.1585 ± 0.0032
278.62 K, 101.1 kPa	0.1539 ± 0.0031
285.8 K, 10010 kPa	0.1551 ± 0.0032
286.18 K, 5012.4 kPa	0.1531 ± 0.0031
286.23 K, 101.5 kPa	0.1512 ± 0.0031
286.4 K, 30001 kPa	0.1626 ± 0.0033
286.51 K, 20013 kPa	0.159 ± 0.0032
286.67 K, 30009 kPa	0.1625 ± 0.0033
286.8 K, 20011 kPa	0.159 ± 0.0032
287.06 K, 101.3 kPa	0.1509 ± 0.0031
287.07 K, 30006 kPa	0.1621 ± 0.0033
287.28 K, 10001 kPa	0.1549 ± 0.0032
287.46 K, 5010.5 kPa	0.153 ± 0.0031
287.68 K, 20035 kPa	0.1586 ± 0.0032
288.14 K, 10002 kPa	0.1545 ± 0.0031
288.62 K, 100.9 kPa	0.1504 ± 0.0031
288.65 K, 5009.1 kPa	0.1525 ± 0.0031
294.52 K, 10026 kPa	0.1516 ± 0.0031
294.53 K, 20008 kPa	0.1566 ± 0.0032
294.55 K, 30012 kPa	0.1589 ± 0.0033
294.64 K, 10027 kPa	0.1527 ± 0.0031
294.68 K, 106.8 kPa	0.1466 ± 0.003
294.68 K, 20036 kPa	0.1566 ± 0.0032
294.75 K, 104.2 kPa	0.1463 ± 0.003
294.83 K, 5021.1 kPa	0.15 ± 0.0031
294.85 K, 10037 kPa	0.1514 ± 0.0031
294.89 K, 30004 kPa	0.1609 ± 0.0033
294.98 K, 5020.1 kPa	0.1495 ± 0.003
295 K, 30018 kPa	0.1595 ± 0.0032
295.07 K, 5014 kPa	0.149 ± 0.003
295.11 K, 20026 kPa	0.1557 ± 0.0032
295.24 K, 20010 kPa	0.1569 ± 0.0032
295.28 K, 30016 kPa	0.1598 ± 0.0033
295.32 K, 30006 kPa	0.16 ± 0.0033
295.36 K, 101.9 kPa	0.1467 ± 0.003
295.36 K, 20006 kPa	0.1558 ± 0.0032
295.37 K, 10024 kPa	0.1515 ± 0.0031
295.38 K, 104.3 kPa	0.1474 ± 0.003
295.83 K, 10044 kPa	0.1522 ± 0.0031
296 K, 5027.1 kPa	0.1498 ± 0.0031
314.6 K, 104.5 kPa	0.1394 ± 0.0029
314.65 K, 105.6 kPa	0.1386 ± 0.0029
314.79 K, 30008 kPa	0.1522 ± 0.0031
314.83 K, 20003 kPa	0.1491 ± 0.003
314.84 K, 5010.3 kPa	0.1415 ± 0.0029
314.87 K, 10003 kPa	0.1443 ± 0.0029
314.9 K, 107.1 kPa	0.1402 ± 0.0029
314.95 K, 20016 kPa	0.1476 ± 0.003
315.06 K, 10017 kPa	0.144 ± 0.0029
315.14 K, 30010 kPa	0.1529 ± 0.0031
315.17 K, 10013 kPa	0.1447 ± 0.0029
315.23 K, 5018.6 kPa	0.1424 ± 0.0029
315.26 K, 30008 kPa	0.1519 ± 0.0031
315.27 K, 105.4 kPa	0.1395 ± 0.0028
315.3 K, 20008 kPa	0.1484 ± 0.003
315.31 K, 20001 kPa	0.1483 ± 0.003
315.42 K, 10012 kPa	0.1445 ± 0.0029
315.46 K, 5010.3 kPa	0.1419 ± 0.0029
315.51 K, 100.6 kPa	0.1391 ± 0.0028
334.53 K, 10006 kPa	0.1361 ± 0.0028
334.58 K, 102.1 kPa	0.132 ± 0.0027
334.58 K, 5005.9 kPa	0.1342 ± 0.0027
334.65 K, 5011.8 kPa	0.1347 ± 0.0027
334.69 K, 90 kPa	0.132 ± 0.0027
334.76 K, 10004 kPa	0.1366 ± 0.0028
334.94 K, 10015 kPa	0.1373 ± 0.0028
334.98 K, 5008.9 kPa	0.1344 ± 0.0027
335.06 K, 101.6 kPa	0.1322 ± 0.0027
335.31 K, 10008 kPa	0.1374 ± 0.0028
335.39 K, 5011.5 kPa	0.1347 ± 0.0027
335.53 K, 105.6 kPa	0.1314 ± 0.0027
335.59 K, 10015 kPa	0.1366 ± 0.0028
335.96 K, 5018 kPa	0.1343 ± 0.0027
336.14 K, 105.6 kPa	0.1319 ± 0.0027

Cc1ccccc1 [toluene]
Settings	thermal conductivity [W/m/K]
274.65 K	0.1387 ± 0.0028
275.4 K	0.1382 ± 0.0028
275.95 K	0.1384 ± 0.0028
276.31 K	0.138 ± 0.0028
287.33 K	0.1345 ± 0.0028
288.72 K	0.1336 ± 0.0027
289.65 K	0.1335 ± 0.0027
294.45 K	0.1318 ± 0.0027
294.69 K	0.1318 ± 0.0027
295.08 K	0.1321 ± 0.0027
295.47 K	0.1314 ± 0.0027
295.79 K	0.132 ± 0.0027
297.45 K	0.1318 ± 0.0027
298.6 K	0.1313 ± 0.0027
300.43 K	0.1303 ± 0.0027
307.66 K	0.1287 ± 0.0026
308.62 K	0.1283 ± 0.0026
310.22 K	0.1274 ± 0.0026
314.69 K	0.1261 ± 0.0026
314.74 K	0.1264 ± 0.0026
315.55 K	0.1253 ± 0.0026
315.85 K	0.1254 ± 0.0026
316.7 K	0.1251 ± 0.0026
317.94 K	0.1251 ± 0.0026
319.32 K	0.1245 ± 0.0026
319.96 K	0.1245 ± 0.0026
327.65 K	0.1225 ± 0.0025
329.5 K	0.1214 ± 0.0025
330.77 K	0.1209 ± 0.0025
338.39 K	0.1188 ± 0.0024
339.77 K	0.1181 ± 0.0024
340.62 K	0.1181 ± 0.0024
355.63 K	0.114 ± 0.0023
355.95 K	0.114 ± 0.0023
357.02 K	0.1137 ± 0.0023
375.26 K	0.1086 ± 0.0022
375.71 K	0.1087 ± 0.0022

Reference: the NIST ThermoML archive (doi:10.1007/s10765-008-0549-z)
